IC50 and EC50 data for nine molecules are collected here from ChEMBL document CHEMBL3774354, “Discovery of Selective Histone Deacetylase 6 Inhibitors Using the Quinazoline as the Cap for the Treatment of Cancer” (J Med Chem, 2016).

Each structure is given as a SMILES string.

Test [1] has as its target Histone deacetylase 1 (Homo sapiens, UniProt Q13547).
Description: Inhibition of human recombinant HDAC1 using AMC labeled AC-peptide as substrate incubated for 1 hr by fluorescence analysis
In test [2] the target is T1, Protein deacetylase HDAC6 (Homo sapiens, UniProt Q9UBN7).
T1 sequence (Q9UBN7 whole entry): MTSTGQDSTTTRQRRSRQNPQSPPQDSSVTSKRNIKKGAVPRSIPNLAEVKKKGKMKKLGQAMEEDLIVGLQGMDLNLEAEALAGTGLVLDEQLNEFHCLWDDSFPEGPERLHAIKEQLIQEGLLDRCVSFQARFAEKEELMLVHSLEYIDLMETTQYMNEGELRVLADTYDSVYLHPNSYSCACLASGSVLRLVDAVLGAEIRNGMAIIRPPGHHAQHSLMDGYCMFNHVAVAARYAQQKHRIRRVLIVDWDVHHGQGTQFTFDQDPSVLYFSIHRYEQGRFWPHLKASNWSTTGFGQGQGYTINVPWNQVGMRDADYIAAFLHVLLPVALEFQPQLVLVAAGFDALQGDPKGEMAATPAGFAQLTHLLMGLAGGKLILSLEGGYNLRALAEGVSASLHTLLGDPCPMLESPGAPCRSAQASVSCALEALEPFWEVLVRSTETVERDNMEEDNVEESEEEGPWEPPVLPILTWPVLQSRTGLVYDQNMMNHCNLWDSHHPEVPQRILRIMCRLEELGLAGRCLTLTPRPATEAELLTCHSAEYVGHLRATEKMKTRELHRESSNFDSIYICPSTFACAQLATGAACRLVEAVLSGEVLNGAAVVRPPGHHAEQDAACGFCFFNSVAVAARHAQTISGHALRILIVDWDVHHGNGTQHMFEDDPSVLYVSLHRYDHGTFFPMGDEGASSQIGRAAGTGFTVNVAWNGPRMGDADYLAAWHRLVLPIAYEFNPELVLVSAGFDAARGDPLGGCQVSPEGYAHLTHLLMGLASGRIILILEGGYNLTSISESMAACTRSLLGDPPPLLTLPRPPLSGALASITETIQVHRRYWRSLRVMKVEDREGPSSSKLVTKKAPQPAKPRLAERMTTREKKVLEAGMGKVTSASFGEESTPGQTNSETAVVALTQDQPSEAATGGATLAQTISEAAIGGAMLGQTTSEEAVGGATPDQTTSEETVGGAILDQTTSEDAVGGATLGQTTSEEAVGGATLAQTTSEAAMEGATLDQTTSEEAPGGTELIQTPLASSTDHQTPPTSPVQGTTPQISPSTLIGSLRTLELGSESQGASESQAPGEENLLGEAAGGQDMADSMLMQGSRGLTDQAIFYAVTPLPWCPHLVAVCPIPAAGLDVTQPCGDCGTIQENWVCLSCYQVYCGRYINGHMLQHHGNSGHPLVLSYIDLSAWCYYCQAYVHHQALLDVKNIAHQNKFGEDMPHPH
Description: Inhibition of human recombinant HDAC6 using AMC labeled AC-peptide as substrate incubated for 1 hr by fluorescence analysis

Test [3] deals with T2, Histone deacetylase 8 (Homo sapiens, UniProt Q9BY41).
T2 sequence (Q9BY41 whole entry): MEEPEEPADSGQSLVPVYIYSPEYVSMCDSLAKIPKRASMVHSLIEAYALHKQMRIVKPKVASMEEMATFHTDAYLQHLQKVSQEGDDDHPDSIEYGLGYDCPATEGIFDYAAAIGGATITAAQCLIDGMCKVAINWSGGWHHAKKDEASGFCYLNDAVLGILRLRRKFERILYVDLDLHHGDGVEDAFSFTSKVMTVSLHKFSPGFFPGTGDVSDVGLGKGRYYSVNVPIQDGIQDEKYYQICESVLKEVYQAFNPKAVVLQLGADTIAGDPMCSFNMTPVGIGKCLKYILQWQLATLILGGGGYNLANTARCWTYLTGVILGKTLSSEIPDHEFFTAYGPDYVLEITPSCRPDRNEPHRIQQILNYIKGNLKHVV
Description: Inhibition of human recombinant HDAC8 using AMC labeled AC-peptide as substrate incubated for 1 hr by fluorescence analysis

In test [4] the target is T1, Protein deacetylase HDAC6. The test is described as follows: Inhibition of HDAC6 in human HeLa cells assessed as induction of tubulin acetylation incubated for 6 hrs by cytoblot assay. It counts as cell-based.
Test [5] deals with HeLa. The test is described as follows: Induction of histone H3 acetylation in human HeLa cells incubated for 6 hrs by cytoblot assay. It counts as functional, cell-based.
In test [6] the test system is A-375. The test is described as follows: Antiproliferative activity against human A375 cells after 72 hrs by MTT assay. Type of test: functional, cell-based. The settings on record: A-375, 72 h. A general note: Tetrazolium assays rely on reduction of a dye to a coloured formazan, in cell work by metabolically active cells.
For test [7], the system named is HeLa. The experiment in a line: Antiproliferative activity against human HeLa cells after 72 hrs by MTT assay. Type of test: functional, cell-based.

Sequence of Histone deacetylase 1 (Q13547 whole entry): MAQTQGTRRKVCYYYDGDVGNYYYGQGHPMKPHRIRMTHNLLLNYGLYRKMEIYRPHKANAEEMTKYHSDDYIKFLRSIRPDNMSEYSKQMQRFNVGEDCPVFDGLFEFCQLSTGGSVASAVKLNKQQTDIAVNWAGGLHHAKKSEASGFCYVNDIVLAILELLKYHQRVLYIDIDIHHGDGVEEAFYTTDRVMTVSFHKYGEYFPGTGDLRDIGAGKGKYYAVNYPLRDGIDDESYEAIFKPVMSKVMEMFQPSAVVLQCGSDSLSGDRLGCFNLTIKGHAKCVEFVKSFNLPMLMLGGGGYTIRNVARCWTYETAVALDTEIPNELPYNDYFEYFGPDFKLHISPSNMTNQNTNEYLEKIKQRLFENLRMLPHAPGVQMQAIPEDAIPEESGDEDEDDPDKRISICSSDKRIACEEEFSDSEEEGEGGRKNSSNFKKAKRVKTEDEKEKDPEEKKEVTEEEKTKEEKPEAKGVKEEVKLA

Consider `Cc1nc(N(C)c2cccc(OCC(=O)NO)c2)c2ccccc2n1`, for which the IC50 in test [1], in test [2] and in test [3] was greater than 1000 nM each time.
Consider `COc1ccc(N(C)c2nc(C)nc3ccccc23)cc1OCCCCCC(=O)NO`, for which the IC50 in test [1] was 160 nM; in test [2], 23 nM; in test [3], 1530 nM.
For `Cc1nc2c(c(N(C)c3ccc(OCCCCCC(=O)NO)cc3)n1)CCC2` the same measures were 120 nM, 20 nM and 1000 nM.
Consider `Cc1nc(N(C)c2cccc(OCCCCC(=O)NO)c2)c2ccccc2n1`, for which the IC50 is 306 nM in test [1], greater than 1000 nM in test [2] and greater than 1000 nM in test [3].
Consider `Cc1nc(N(C)c2ccc(OCCCCC(=O)NO)cc2)c2ccccc2n1`, for which the IC50 in test [1] turned out to be 204 nM.
As to `Cc1nc2c(c(N(C)c3ccc(OCCCC(=O)NO)cc3)n1)CCC2`, the IC50 in test [1] was 195 nM; in test [2], 40 nM; in test [3] it was 6190 nM.
`Cc1nc(N(C)c2cccc(OCCCCCC(=O)NO)c2)c2ccccc2n1`: the IC50 in test [1] is 73 nM; in test [2], greater than 1000 nM; in test [3], greater than 1000 nM.
Take `Cc1nc(N(C)c2cccc(OCCCC(=O)NO)c2)c2ccccc2n1`: the IC50 in test [1], in test [2] and in test [3] was greater than 1000 nM in each case.
Take `Cc1nc(N(C)c2ccc(OCC(=O)NO)cc2)c2ccccc2n1`: the EC50 in test [4] was 26.2 nM; in test [5], 456 nM. In addition, the concentration for half-maximal inhibition (IC50) in test [6] is 213 nM; in test [7], 171 nM.

The term IC50 denotes the midpoint of a concentration-inhibition curve. Read a high IC50 as lower potency. In general, EC50 refers to the concentration that produces a half-maximal response.
